Laboratory results: US7238720B2, “Pharmaceutical use of N-carbamoylazole derivatives” (Eisai R & D Management Co. Ltd., priority 2001, dated 2007)

Key:
[1] = molecular target: T1, DPP-IV, obtained from porcine kidneys (Sus scrofa, UniProt P22411); experiment: Measurement of DPPIV inhibiting effects (Gly-Pro-p-nitroanilide, absorbance at 405 nm); format: biochemical; settings: porcine kidney DPP-IV 10 mU/mL, 20 min preincubation, Gly-Pro-p-nitroanilide 0.33 mM, pH 7.4
T1 construct: DPP-IV, obtained from porcine kidneys; from tissue; host or cells: porcine kidney
Method: Measurement of DPPIV Inhibiting Effects
DPP-IV, obtained from porcine kidneys, was dissolved in a reaction buffer solution (50 mM Tris-HCl, pH 7.4, 0.1% BSA) such that the concentration of DPP-IV was at 10 mU/mL. This solution (110 μl) was placed into test tubes, to which compounds to be tested were further added at a quantity of 15 μl and incubated at room temperature for 20 minutes. Twenty-five microliters of a solution in which Gly-Pro-p-nitroanilide was dissolved at 2 mM was added (final concentration, 0.33 mM) to start the enzymatic reaction. The reaction time was 20 minutes. The reaction was stopped by the addition of 25 μl of 1 N phosphoric acid.

[2] = system: male C57BL/6N mice; experiment: Glucose-tolerance improving effects in normal mice, Experiments 1 and 2 (compound given orally mixed with glucose); format: in vivo; settings: for Blood Glucose, At Indicated Times (min.) After Oral Administration: mean ± standard error
Method: (§1) Test for Identifying Glucose-Tolerance Improving Effects
(§2) Effects on Glucose-Tolerance Ability of Normal Mice
(§3) Animals: Five or six male C57BL/6N mice per group (purchased from Charles River Japan, Inc.).
Compounds to be tested were suspended in a 0.5% aqueous solution of methylcellulose and mixed with an equal volume of a glucose solution, and administered orally at a volume of 10 ml/kg at doses indicated in Tables below. Vehicle control groups received orally a mixture of a 0.5% aqueous solution of methylcellulose and an equal volume of a glucose solution at a volume of 10 ml/kg. Glucose was given at a dose of 2 g/kg.
The blood was drawn from the tail vein immediately before and at 30, 60, and 120 minutes after the administration of mixed solutions of the compounds to be tested and glucose, and subjected to the measurement of the blood glucose value.
(§4) The tail vein of the mice was injured, without anesthesia, with a razor to cause slight bleeding. Ten microliters of blood was collected, and mixed immediately with […] of 0.6 M perchloric acid. The glucose in supernatants obtained by centrifugation (1500 g, 10 min. 4° C., in a cooled centrifuge GS-6KR from Beckman Ltd.) was determined employing a Glucose CII Test Wako kit (Wako Pure Chemical Industries, Ltd.).
(§5) The results are expressed by mean value±standard error.

[3] = system: male C57BL/6N mice; experiment: Glucose-tolerance improving effects in normal mice, Experiment 3 (compound given orally 30 minutes before glucose); format: in vivo; settings: for Blood Glucose, At Indicated Times After Glucose-Solution Administration (min.): 1 mg/kg oral 30 min before glucose 2 g/kg, mean ± standard error
Method: as §1, §2, §3
The suspension of the compound to be tested and 0.5% methylcellulose solution which was the vehicle control group were administered orally at a volume of 10 ml/kg, and at 30 minutes after administration, a glucose solution was administered orally at a volume of 10 ml/kg. Glucose was given at a dose of 2 g/kg.
The blood was drawn from the tail vein immediately before the administration of the compound to be tested, and immediately before and at 30, 60, and 120 minutes after the administration of the glucose solution, and subjected to the measurement of the blood glucose value.
as §4, §5

T1 sequence (P22411 whole entry): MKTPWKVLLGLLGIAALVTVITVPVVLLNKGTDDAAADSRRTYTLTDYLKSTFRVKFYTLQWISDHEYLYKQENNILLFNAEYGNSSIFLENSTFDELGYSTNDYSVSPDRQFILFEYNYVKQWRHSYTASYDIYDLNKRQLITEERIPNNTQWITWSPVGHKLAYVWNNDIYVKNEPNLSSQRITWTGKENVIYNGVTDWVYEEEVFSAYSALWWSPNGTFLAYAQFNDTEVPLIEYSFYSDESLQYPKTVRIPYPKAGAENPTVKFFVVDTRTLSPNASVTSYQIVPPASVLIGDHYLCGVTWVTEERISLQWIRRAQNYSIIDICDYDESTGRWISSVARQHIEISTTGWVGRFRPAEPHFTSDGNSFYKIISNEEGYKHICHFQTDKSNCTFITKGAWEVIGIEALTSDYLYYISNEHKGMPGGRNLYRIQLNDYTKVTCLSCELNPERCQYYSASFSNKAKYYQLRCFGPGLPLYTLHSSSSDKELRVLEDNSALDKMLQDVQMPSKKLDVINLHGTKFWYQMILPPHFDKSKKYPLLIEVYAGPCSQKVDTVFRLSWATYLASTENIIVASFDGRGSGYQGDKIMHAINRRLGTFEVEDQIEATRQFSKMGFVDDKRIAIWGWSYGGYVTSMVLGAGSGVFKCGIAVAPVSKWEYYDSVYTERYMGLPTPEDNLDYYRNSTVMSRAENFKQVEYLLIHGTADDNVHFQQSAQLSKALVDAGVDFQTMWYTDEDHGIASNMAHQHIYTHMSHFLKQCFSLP

CN(C)C(=O)n1cnc(S(=O)(=O)Cc2ccccc2)n1 [Example 2, 3-Benzylsulfonyl-1-dimethylcarbamoyl-1H-1,2,4-triazole]
IC50 [1]: 1390 nM | Blood Glucose, At Indicated Times (min.) After Oral Administration ([2]; Experiment 1, 30 mg/kg oral with glucose 2 g/kg, 0 min (immediately before administration)): 75.8 ± 1.5 mg/dL | Blood Glucose, At Indicated Times (min.) After Oral Administration ([2]; Experiment 1, 30 mg/kg oral with glucose 2 g/kg, 30 min): 159.8 ± 5.5 mg/dL | Blood Glucose, At Indicated Times (min.) After Oral Administration ([2]; Experiment 1, 30 mg/kg oral with glucose 2 g/kg, 60 min): 133.8 ± 4.1 mg/dL | Blood Glucose, At Indicated Times (min.) After Oral Administration ([2]; Experiment 1, 30 mg/kg oral with glucose 2 g/kg, 120 min): 109.6 ± 3.0 mg/dL

COCCOc1cccc(C)c1S(=O)(=O)c1ncn(C(=O)N(C)C)n1 [Example 43, 3-[2-(2-Methoxyethyl)oxy-6-methylphenyl]sulfonyl-1-dimethylcarbamoyl-1H-1,2,4-triazole]
IC50 [1]: 4.34 nM | Blood Glucose, At Indicated Times After Glucose-Solution Administration (min.) ([3]; 0 min (immediately before glucose)): 89.8 ± 2.1 mg/dL | Blood Glucose, At Indicated Times After Glucose-Solution Administration (min.) ([3]; 30 min): 173.8 ± 5.1 mg/dL | Blood Glucose, At Indicated Times After Glucose-Solution Administration (min.) ([3]; 60 min): 170.8 ± 5.7 mg/dL | Blood Glucose, At Indicated Times After Glucose-Solution Administration (min.) ([3]; 120 min): 112.1 ± 2.5 mg/dL | Blood Glucose, At Indicated Times After Glucose-Solution Administration (min.) ([3]; −30 min (immediately before compound administration)): 70.8 ± 1.5 mg/dL | effect on glucose-tolerance ability of normal mice ([3]; oral administration, result in words): distinct effect

CN(C)C(=O)n1cnc(S(=O)(=O)[C@@H]2C[C@@H]3CC[C@H]2C3)n1 (relative stereo) [Example 13, 3-(Endo-norbornan-2-yl)sulfonyl-1-dimethylcarbamoyl-1H-1,2,4-triazole]
IC50 [1]: 164 nM | Blood Glucose, At Indicated Times (min.) After Oral Administration ([2]; Experiment 2, 3 mg/kg oral with glucose 2 g/kg, 0 min (immediately before administration)): 73.9 ± 3.0 mg/dL | Blood Glucose, At Indicated Times (min.) After Oral Administration ([2]; Experiment 2, 3 mg/kg oral with glucose 2 g/kg, 30 min): 177.7 ± 6.3 mg/dL | Blood Glucose, At Indicated Times (min.) After Oral Administration ([2]; Experiment 2, 3 mg/kg oral with glucose 2 g/kg, 60 min): 139.7 ± 6.7 mg/dL | Blood Glucose, At Indicated Times (min.) After Oral Administration ([2]; Experiment 2, 3 mg/kg oral with glucose 2 g/kg, 120 min): 92.5 ± 2.4 mg/dL | Blood Glucose, At Indicated Times (min.) After Oral Administration ([2]; Experiment 2, 10 mg/kg oral with glucose 2 g/kg, 0 min (immediately before administration)): 73.3 ± 2.8 mg/dL | Blood Glucose, At Indicated Times (min.) After Oral Administration ([2]; Experiment 2, 10 mg/kg oral with glucose 2 g/kg, 30 min): 159.9 ± 9.9 mg/dL | Blood Glucose, At Indicated Times (min.) After Oral Administration ([2]; Experiment 2, 10 mg/kg oral with glucose 2 g/kg, 60 min): 129.3 ± 9.1 mg/dL | Blood Glucose, At Indicated Times (min.) After Oral Administration ([2]; Experiment 2, 10 mg/kg oral with glucose 2 g/kg, 120 min): 90.6 ± 3.2 mg/dL | Blood Glucose, At Indicated Times (min.) After Oral Administration ([2]; Experiment 2, 30 mg/kg oral with glucose 2 g/kg, 0 min (immediately before administration)): 70.4 ± 4.0 mg/dL | Blood Glucose, At Indicated Times (min.) After Oral Administration ([2]; Experiment 2, 30 mg/kg oral with glucose 2 g/kg, 30 min): 148.7 ± 5.1 mg/dL | Blood Glucose, At Indicated Times (min.) After Oral Administration ([2]; Experiment 2, 30 mg/kg oral with glucose 2 g/kg, 60 min): 127.3 ± 5.9 mg/dL | Blood Glucose, At Indicated Times (min.) After Oral Administration ([2]; Experiment 2, 30 mg/kg oral with glucose 2 g/kg, 120 min): 93.7 ± 2.3 mg/dL | Blood Glucose, At Indicated Times (min.) After Oral Administration ([2]; Experiment 2, 100 mg/kg oral with glucose 2 g/kg, 0 min (immediately before administration)): 72.0 ± 2.1 mg/dL | Blood Glucose, At Indicated Times (min.) After Oral Administration ([2]; Experiment 2, 100 mg/kg oral with glucose 2 g/kg, 30 min): 147.1 ± 16.2 mg/dL | Blood Glucose, At Indicated Times (min.) After Oral Administration ([2]; Experiment 2, 100 mg/kg oral with glucose 2 g/kg, 60 min): 133.7 ± 8.8 mg/dL | Blood Glucose, At Indicated Times (min.) After Oral Administration ([2]; Experiment 2, 100 mg/kg oral with glucose 2 g/kg, 120 min): 106.2 ± 5.4 mg/dL | effect on glucose-tolerance ability of normal mice ([2]; oral administration, Experiments 1 and 2, result in words): distinct effect
